From US20250313548A1 (Actio Biosciences, Inc., priority 2023, published 2025)
pIC50: −log10 of the molar value.

Target: human, KCNT1 (Homo sapiens (Human), UniProt Q5JUK3)
Assay: FLIPR Tl/K Flux Assay
Assay type: cell-based
Details: HEK293 cells stably expressing human KCNT1; Tl+ flux stimulated with EC80 of agonist Loxapine
Method in brief: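 HEK293 cells stably expressing human KCNT1 were loaded with FLIPR potassium dye in HEPES/HBSS pH 7.4 with 5 mM probenecid, 1 h at 25 °C, then given test compound for 30 min at 25 °C. Tl+ flux was triggered with chloride-free buffer containing Tl+ and EC80 loxapine and read 160 s. IC50 came from Hill fits of % inhibition.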

human, KCNT1, sequence (Q5JUK3 whole entry): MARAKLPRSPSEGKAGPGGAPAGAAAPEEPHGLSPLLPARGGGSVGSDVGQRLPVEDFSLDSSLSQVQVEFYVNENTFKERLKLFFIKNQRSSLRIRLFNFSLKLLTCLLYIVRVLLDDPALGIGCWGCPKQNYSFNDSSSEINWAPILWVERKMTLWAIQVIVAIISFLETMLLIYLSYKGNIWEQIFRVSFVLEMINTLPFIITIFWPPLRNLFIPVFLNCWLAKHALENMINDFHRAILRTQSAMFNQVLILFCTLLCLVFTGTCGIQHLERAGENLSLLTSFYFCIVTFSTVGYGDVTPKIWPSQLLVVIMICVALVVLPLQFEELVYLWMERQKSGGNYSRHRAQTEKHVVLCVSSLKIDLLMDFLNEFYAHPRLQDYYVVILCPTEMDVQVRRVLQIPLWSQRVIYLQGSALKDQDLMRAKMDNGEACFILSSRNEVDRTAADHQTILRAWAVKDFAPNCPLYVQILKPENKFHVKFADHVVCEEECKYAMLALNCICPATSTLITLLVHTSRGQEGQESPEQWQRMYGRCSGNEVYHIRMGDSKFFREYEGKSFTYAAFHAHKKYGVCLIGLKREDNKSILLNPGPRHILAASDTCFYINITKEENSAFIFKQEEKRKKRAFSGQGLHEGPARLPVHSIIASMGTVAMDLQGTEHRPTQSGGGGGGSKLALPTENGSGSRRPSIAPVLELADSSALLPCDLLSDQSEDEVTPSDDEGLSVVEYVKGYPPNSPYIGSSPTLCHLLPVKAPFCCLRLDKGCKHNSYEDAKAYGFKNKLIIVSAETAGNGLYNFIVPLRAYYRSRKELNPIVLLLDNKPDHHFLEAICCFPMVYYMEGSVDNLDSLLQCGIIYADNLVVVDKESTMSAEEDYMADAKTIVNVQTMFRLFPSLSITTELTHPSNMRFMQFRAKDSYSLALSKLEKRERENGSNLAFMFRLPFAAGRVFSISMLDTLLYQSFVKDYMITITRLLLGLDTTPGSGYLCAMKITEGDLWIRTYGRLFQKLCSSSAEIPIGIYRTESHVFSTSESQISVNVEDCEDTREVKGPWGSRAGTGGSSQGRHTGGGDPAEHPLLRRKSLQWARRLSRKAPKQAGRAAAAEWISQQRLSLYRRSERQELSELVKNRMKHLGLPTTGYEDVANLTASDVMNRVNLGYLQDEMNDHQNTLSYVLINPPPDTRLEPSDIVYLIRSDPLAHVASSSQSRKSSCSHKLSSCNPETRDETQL

Row | Structure (SMILES) | pIC50
1 | O=C(N[C@H]1CCCc2nc(-c3cc(C4CC4)ncc3F)oc21)c1ccnc(OC(F)(F)F)c1 [Compound I-158a, (S)-N-(2-(2-Cyclopropyl-5-fluoropyridin-4-yl)-4,5,6,7-tetrahydrobenzo[d]oxazol-7-yl)-2-(trifluoromethoxy)isonicotinamide] | > 6.60
2 | O=C(N[C@H]1CCCc2nc(-c3cc(C4CC4)ncc3F)oc21)c1cccc(OC(F)(F)F)c1 [Compound I-159a, (S)-N-(2-(2-Cyclopropyl-5-fluoropyridin-4-yl)-4,5,6,7-tetrahydrobenzo[d]oxazol-7-yl)-3-(trifluoromethoxy)benzamide] | > 6.60
3 | N#Cc1cccc(C(=O)N[C@H]2CCCCc3oc(-c4ccnc(C(F)(F)F)c4)nc32)c1 [Compound I-160a, (S)-3-cyano-N-(2-(2-(trifluoromethyl)pyridin-4-yl)-5,6,7,8-tetrahydro-4H-cyclohepta[d]oxazol-4-yl)benzamide] | > 6.60
4 | N#Cc1cccc(C(=O)N[C@@H]2CCCCc3oc(-c4ccnc(C(F)(F)F)c4)nc32)c1 [Compound I-160b, (R)-3-cyano-N-(2-(2-(trifluoromethyl)pyridin-4-yl)-5,6,7,8-tetrahydro-4H-cyclohepta[d]oxazol-4-yl)benzamide] | > 6.60
5 | COc1cc(-c2nc3c(o2)[C@@H](NC(=O)c2cncc(C(F)(F)F)n2)CCC3)c(Cl)cn1 [Compound I-161a, (S)-N-(2-(5-Chloro-2-methoxypyridin-4-yl)-4,5,6,7-tetrahydrobenzo[d]oxazol-7-yl)-6-(trifluoromethyl)pyrazine-2-carboxamide] | 6.30 to 6.60
6 | COc1cc(-c2nc3c(o2)[C@@H](NC(=O)c2cc(Cl)cc(Cl)c2)CCC3)c(Cl)cn1 [Compound I-162a, (S)-3,5-Dichloro-N-(2-(5-chloro-2-methoxypyridin-4-yl)-4,5,6,7-tetrahydrobenzo[d]oxazol-7-yl)benzamide] | > 6.60
7 | COc1cc(-c2nc3c(o2)[C@@H](NC(=O)c2cccc(OC(F)(F)F)c2)CCC3)c(Cl)cn1 [Compound I-164a, (S)-N-(2-(5-Chloro-2-methoxypyridin-4-yl)-4,5,6,7-tetrahydrobenzo[d]oxazol-7-yl)-3-(trifluoromethoxy)benzamide] | > 6.60
8 | COc1cc(-c2nc3c(o2)[C@@H](NC(=O)c2cccc(C(F)(F)F)c2)CCC3)c(Cl)cn1 [Compound I-167a, (S)-N-(2-(5-Chloro-2-methoxypyridin-4-yl)-4,5,6,7-tetrahydrobenzo[d]oxazol-7-yl)-3-(trifluoromethyl)benzamide] | > 6.60
9 | COc1cc(-c2nc3c(o2)[C@@H](NC(=O)c2cccc(C(F)(F)F)c2)CCC3)ccn1 [Compound I-168a, (S)-N-(2-(2-Methoxypyridin-4-yl)-4,5,6,7-tetrahydrobenzo[d]oxazol-7-yl)-3-(trifluoromethyl)benzamide] | > 6.60
10 | COc1cc(-c2cc3n(n2)CC[C@H]3NC(=O)c2cc(C(F)(F)F)nn2C)c(C(F)(F)F)cn1 [Compound I-172b] | < 6.00
11 | COc1cc(-c2nc3c(o2)[C@@H](NC(=O)c2cncc(C(F)(F)F)n2)CCC3)c(F)cn1 [Compound I-173a] | 6.30 to 6.60
12 | COc1cc(-c2nc3c(o2)[C@@H](NC(=O)c2cc(Cl)cc(Cl)c2)CCC3)c(F)cn1 [Compound I-174a, (S)-3,5-Dichloro-N-(2-(5-fluoro-2-methoxypyridin-4-yl)-4,5,6,7-tetrahydrobenzo[d]oxazol-7-yl)benzamide] | > 6.60
13 | COc1cc(-c2nc3c(o2)[C@@H](NC(=O)c2cccc(OC(F)(F)F)c2)CCC3)c(F)cn1 [Compound I-176a, (S)-N-(2-(5-Fluoro-2-methoxypyridin-4-yl)-4,5,6,7-tetrahydrobenzo[d]oxazol-7-yl)-3-(trifluoromethoxy)benzamide] | > 6.60
14 | COc1cc(-c2nc3c(o2)[C@@H](NC(=O)c2cccc(C(F)(F)F)c2)CCC3)c(F)cn1 [Compound I-177a, (S)-N-(2-(5-Fluoro-2-methoxypyridin-4-yl)-4,5,6,7-tetrahydrobenzo[d]oxazol-7-yl)-3-(trifluoromethyl)benzamide] | > 6.60
15 | Cc1cnc(C(F)(F)F)cc1-c1nc2c(o1)CCC[C@@H]2NC(=O)c1cc(C(F)(F)F)nn1C [Compound I-178a, (S)-1-Methyl-N-(2-(5-methyl-2-(trifluoromethyl)pyridin-4-yl)-4,5,6,7-tetrahydrobenzo[d]oxazol-4-yl)-3-(trifluoromethyl)-1H-pyrazole-5-carboxamide] | > 6.60
16 | Cn1nc(C(F)(F)F)cc1C(=O)N[C@H]1CCCc2nc(-c3ccnc(C4CC4)c3)oc21 [Compound I-180a, (S)-N-(2-(2-Cyclopropylpyridin-4-yl)-4,5,6,7-tetrahydrobenzo[d]oxazol-7-yl)-1-methyl-3-(trifluoromethyl)-1H-pyrazole-5-carboxamide] | > 6.60
17 | Cc1cnc(C(F)(F)F)cc1-c1cc2n(n1)CCC[C@@H]2NC(=O)c1ccnc(OC(F)(F)F)c1 [Compound I-181a, (S)-N-(2-(5-Methyl-2-(trifluoromethyl)pyridin-4-yl)-4,5,6,7-tetrahydropyrazolo[1,5-a]pyridin-4-yl)-2-(trifluoromethoxy)isonicotinamide] | > 6.60
18 | O=C(N[C@H]1CCCn2nc(-c3cc(C(F)(F)F)ncc3F)nc21)c1cncc(C(F)(F)F)n1 [Compound I-182a, (S)-N-(2-(5-Fluoro-2-(trifluoromethyl)pyridin-4-yl)-5,6,7,8-tetrahydro-[1,2,4]triazolo[1,5-a]pyridin-8-yl)-6-(trifluoromethyl)pyrazine-2-carboxamide] | 6.00 to 6.30
19 | COc1cc(-c2cc3n(n2)CCCC[C@@H]3NC(=O)c2cc(F)cc(C#N)c2)c(F)cn1 [Compound I-183a, (S)-3-Cyano-5-fluoro-N-(2-(5-fluoro-2-methoxypyridin-4-yl)-5,6,7,8-tetrahydro-4H-pyrazolo[1,5-a]azepin-4-yl)benzamide] | > 6.60
20 | O=C(N[C@H]1CCCc2nc(-c3ccnc(C(F)(F)F)c3)oc21)c1cncc(C(F)(F)F)n1 [Compound I-184a, (S)-6-(Trifluoromethyl)-N-(2-(2-(trifluoromethyl)pyridin-4-yl)-4,5,6,7-tetrahydrobenzo[d]oxazol-7-yl)pyrazine-2-carboxamide] | > 6.60
21 | O=C(N[C@H]1CCCc2nc(-c3ccnc(C(F)(F)F)c3)oc21)c1ccnc(OC(F)(F)F)c1 [Compound I-186a, (S)-2-(Trifluoromethoxy)-N-(2-(2-(trifluoromethyl)pyridin-4-yl)-4,5,6,7-tetrahydrobenzo[d]oxazol-7-yl)isonicotinamide] | > 6.60
22 | O=C(N[C@H]1CCCc2nc(-c3ccnc(C(F)(F)F)c3)oc21)c1cccc(OC(F)(F)F)c1 [Compound I-187a, (S)-3-(Trifluoromethoxy)-N-(2-(2-(trifluoromethyl)pyridin-4-yl)-4,5,6,7-tetrahydrobenzo[d]oxazol-7-yl)benzamide] | > 6.60

Now from value to compound:

Row | pIC50 | Structure (SMILES)
23 | > 6.60 | O=C(N[C@H]1CCCc2nc(-c3cc(C4CC4)ncc3F)oc21)c1cc(Cl)cc(Cl)c1 [Compound I-157a, (S)-3,5-Dichloro-N-(2-(2-cyclopropyl-5-fluoropyridin-4-yl)-4,5,6,7-tetrahydrobenzo[d]oxazol-7-yl)benzamide]
24 | > 6.60 | COc1cc(-c2nc3c(o2)[C@@H](NC(=O)c2ccnc(OC(F)(F)F)c2)CCC3)c(Cl)cn1 [Compound I-163a]
25 | > 6.60 | O=C(N[C@H]1CCCc2nc(-c3cc(C4CC4)ncc3F)oc21)c1cccc(C(F)(F)F)c1 [Compound I-165a, (S)-N-(2-(2-Cyclopropyl-5-fluoropyridin-4-yl)-4,5,6,7-tetrahydrobenzo[d]oxazol-7-yl)-3-(trifluoromethyl)benzamide]
26 | > 6.60 | Cn1nc(C(F)(F)F)cc1C(=O)N[C@H]1CCCc2nc(-c3cc(C4CC4)ncc3F)oc21 [Compound I-166a, (S)—N-(2-(2-Cyclopropyl-5-fluoropyridin-4-yl)-4,5,6,7-tetrahydrobenzo[d]oxazol-7-yl)-1-methyl-3-(trifluoromethyl)-1H-pyrazole-5-carboxamide]
27 | > 6.60 | O=C(N[C@H]1CCCc2nc(-c3ccnc(C4CC4)c3)oc21)c1ccnc(OC(F)(F)F)c1 [Compound I-169a, (S)-N-(2-(2-Cyclopropylpyridin-4-yl)-4,5,6,7-tetrahydrobenzo[d]oxazol-7-yl)-2-(trifluoromethoxy)isonicotinamide]
28 | > 6.60 | O=C(N[C@H]1CCCc2nc(-c3ccnc(C4CC4)c3)oc21)c1cccc(OC(F)(F)F)c1 [Compound I-170a, (S)-N-(2-(2-Cyclopropylpyridin-4-yl)-4,5,6,7-tetrahydrobenzo[d]oxazol-7-yl)-3-(trifluoromethoxy)benzamide]
29 | > 6.60 | O=C(N[C@H]1CCCc2nc(-c3ccnc(C4CC4)c3)oc21)c1cccc(C(F)(F)F)c1 [Compound I-171a, (S)-N-(2-(2-Cyclopropylpyridin-4-yl)-4,5,6,7-tetrahydrobenzo[d]oxazol-7-yl)-3-(trifluoromethyl)benzamide]
30 | > 6.60 | COc1cc(-c2cc3n(n2)CC[C@@H]3NC(=O)c2cc(C(F)(F)F)nn2C)c(C(F)(F)F)cn1 [Compound I-172a, (S)-N-(2-(2-Methoxy-5-(trifluoromethyl)pyridin-4-yl)-5,6-dihydro-4H-pyrrolo[1,2-b]pyrazol-4-yl)-1-methyl-3-(trifluoromethyl)-1H-pyrazole-5-carboxamide]
31 | > 6.60 | COc1cc(-c2nc3c(o2)[C@@H](NC(=O)c2ccnc(OC(F)(F)F)c2)CCC3)c(F)cn1 [Compound I-175a]
32 | > 6.60 | O=C(N[C@H]1CCCn2nc(-c3cc(C(F)(F)F)ncc3Cl)cc21)c1ccnc(OC(F)(F)F)c1 [Compound I-179a, (S)-N-(2-(5-Chloro-2-(trifluoromethyl)pyridin-4-yl)-4,5,6,7-tetrahydropyrazolo[1,5-a]pyridin-4-yl)-2-(trifluoromethoxy)isonicotinamid]
33 | > 6.60 | O=C(N[C@H]1CCCc2nc(-c3ccnc(C(F)(F)F)c3)oc21)c1cc(Cl)cc(Cl)c1 [Compound I-185a, (S)-3,5-Dichloro-N-(2-(2-(trifluoromethyl)pyridin-4-yl)-4,5,6,7-tetrahydrobenzo[d]oxazol-7-yl)benzamide]
